Results reported in article PMC7262662 (BioMed Research International, 2020).
Marks after values point to notes of the source that are not given here.

Key:
[1] = tested on: CrFK cells; assay: Cellular uptake study by fluorescence microscopy; format: cell-based, feline; details: 20 μM, examined at 1, 3 and 6 h
Method: The cellular uptake of curcumin and the Cur-CS nanoparticles by CrFK cells was examined using the fluorescence method. […] The plates were incubated at 37°C in an incubator with 5% CO2 for 24 h. […] At these intervals, the cells were rinsed three times with PBS. […] The dried coverslips were mounted on a glass slide, and images were captured by an Olympus IX81 inverted fluorescence microscope (Olympus, Japan) under a 535–600 nm filter.

[2] = Cytotoxicity assay (MTT); format: cell-based, feline; details: cat
Method: (§1) CrFK cells at a density of 2 × 10^4 were incubated in 96-well culture plates for 24 h at 37°C. Then, the cells were washed with PBS. […] A colorimetric MTT assay was performed. Briefly, 20 μL 5 mg/mL MTT solution was added to each well and incubated for 2 h at 37°C. Then, 170 μL solution was removed from each well; subsequently, 100 μL DMSO was added to dissolve the formazan crystals. The plate was then incubated for 1 h before optical density (OD) measurement at 570 nm using a plate reader (BioTek EL800, BioTek, Winooski, VT, USA).
(§2) The relative cell viability (%) of CrFK cells after treatment was calculated using the formula (OD570 (treated cells)/OD570 (control cells)) × 100. The median cytotoxic concentration (CC50) is the concentration that reduces the absorbance of treated cells to 50% with respect to the cell controls. The CC50 of the compounds was calculated by regression analysis in SPSS software version 22.0 (IBM, Chicago, IL, USA).

[3] = tested on: CrFK cells; assay: Cytotoxicity assay (MTT); format: cell-based, feline; details: CrFK cells; MTT; tested 1 to 250 μg/mL
Method: as §1, §2

[4] = tested on: FIPV strain WSU 79-1146; assay: Cytopathic effect inhibition assay (time of addition, MTT); format: cell-based, feline infectious peritonitis virus
Method: The cytopathic effect (CPE) inhibition assay with slight modifications was used as previously described. […] In pretreatment, the compounds were included in the cell culture medium for 8 h and were removed prior to virus infection. In cotreatment, the compounds were mixed with virus in the medium, added simultaneously to the cells, and left on the cells throughout. For posttreatment, the compounds were added to the cells 2 h postinfection (hpi) and remained throughout the time of infection. […] After incubation at 37°C for 48 and 72 h, the cell viability was determined by MTT.
The percentage of protection was calculated based on the OD using the following formula: (3) Percentage of protection %=OD570 T−OD570 V/OD570 C−OD570 V×100, where T is the treated sample, V is the virus-infected control, and C is the negative control.
The median effective concentration (EC50) is the concentration of compound required to achieve 50% protection against virus-induced CPE.

[5] = tested on: FIPV; assay: Antiviral assay in cotreatment: viral RNA quantification by qPCR; format: cell-based, feline infectious peritonitis virus; details: for % log10 copy number decrement: compared to FIPV sample; for 3′UTR log10 copy number: cotreatment
Method: CrFK cells at a density of 1 × 10^5 were cultured in medium in 24-well plates for 24 h at 37°C. […] The culture supernatant was centrifuged at 700 g for 10 min, and the virus-containing supernatant was collected and used for virus quantification.
Viral RNA was extracted from the collected supernatant using a Viral Nucleic Acid Extraction Kit II (Geneaid, New Taipei City, Taiwan) following the protocol provided by the manufacturer. Cellular total RNA was extracted from the CrFK cell pellet using the RNeasy® Mini Kit, which includes DNase treatment (QIAGEN, Germantown, MD, USA). The concentration and purity of the extracted RNA were quantified using the Eppendorf BioSpectrometer® kinetic (Eppendorf, Hamburg, Germany). The extracted RNA was stored at -80°C until further use.
Complementary DNA (cDNA) was prepared, and viral mRNA was quantified using quantitative PCR (qPCR) employing previously described methods. The qPCR results were quantified using the absolute quantification approach, where a standard curve of a serial dilution of viral cDNA template was plotted before the quantification.

[6] = tested on: different cells; set-up: method as in PMID 23658730, doi:10.4236/aim.2016.64027, PMID 20603153; details: ref [19], [60], [61]; cited from earlier work

COc1cc(/C=C/C(=O)CC(=O)/C=C/c2ccc(O)c(OC)c2)ccc1O [Curcumin]
Cellular uptake: time at which green fluorescence was first observed [1]: 3 h
CC50 at 24 h [2]: 69.9 µM
CC50 at 48 h [2]: 59.1 µM
CC50 at 72 h [2]: 35.5 µM
Concentration tolerated by the cells without cytotoxic effect [3]: 15000 ng/mL
SI ([4]; 48 h, CC50/EC50): 3.72
EC50 ([4]; Alphacoronavirus 1, 48 h, 50% protection against virus-induced CPE, 100 TCID50 FIPV in CrFK cells): 15.9 µM
Percentage of protection ([4]; cotreatment, 48 h, 5 μM): 21.98 ± 7.01^b %
Percentage of protection ([4]; cotreatment, 48 h, 10 μM): 40.08 ± 3.71^d %
Percentage of protection ([4]; cotreatment, 48 h, 20 μM): 55.95 ± 1.82^e %
Percentage of protection ([4]; cotreatment, 48 h, 20 μM, listed as curcumin): 56%
Percentage of protection ([4]; cotreatment, 72 h, 5 μM): 11.99 ± 3.43^b %
Percentage of protection ([4]; cotreatment, 72 h, 10 μM): 18.82 ± 1.93^c %
Percentage of protection ([4]; cotreatment, 72 h, 20 μM): 22.25 ± 2.05^c %
Percentage of protection ([4]; posttreatment, 48 h, 5 μM): 0.08 ± 0.13^a %
Percentage of protection ([4]; posttreatment, 48 h, 10 μM): 13.31 ± 3.93^b %
Percentage of protection ([4]; posttreatment, 48 h, 20 μM): 17.28 ± 0.78^bc %
Percentage of protection ([4]; posttreatment, 72 h, 5 μM): 0.99 ± 1.71^a %
Percentage of protection ([4]; posttreatment, 72 h, 10 μM): 2.59 ± 1.55^a %
Percentage of protection ([4]; posttreatment, 72 h, 20 μM): 2.13 ± 1.91^a %
Percentage of protection ([4]; pretreatment, 48 h, 5 μM): 0.38 ± 0.66^a %
Percentage of protection ([4]; pretreatment, 48 h, 10 μM): 3.87 ± 1.64^ab %
Percentage of protection ([4]; pretreatment, 48 h, 20 μM): 12.79 ± 2.27^c %
Percentage of protection ([4]; pretreatment, 72 h, 5 μM): 1.74 ± 1.06^ab %
Percentage of protection ([4]; pretreatment, 72 h, 10 μM): 1.16 ± 1.82^a %
Percentage of protection ([4]; pretreatment, 72 h, 20 μM): 5.12 ± 2.03^bc %
% log10 copy number decrement ([5]; 48 h, 5 μM): 27.54 ± 3.28^b %
3′UTR log10 copy number ([5]; 48 h, 5 μM, FIPV sample 11.86 ± 0.06): 11.72 ± 0.06^d
% log10 copy number decrement ([5]; 48 h, 10 μM): 40.50 ± 5.41^c %
3′UTR log10 copy number ([5]; 48 h, 10 μM, FIPV sample 11.86 ± 0.06): 11.63 ± 0.01^cd
% log10 copy number decrement ([5]; 48 h, 20 μM): 59.46 ± 2.45^e %
% log10 copy number decrement ([5]; 48 h, 20 μM, listed as curcumin): 59.46 ± 2.45%
3′UTR log10 copy number ([5]; 48 h, 20 μM, FIPV sample 11.86 ± 0.06): 11.46 ± 0.05^b
% log10 copy number decrement ([5]; 72 h, 5 μM): 10.70 ± 5.47^b %
3′UTR log10 copy number ([5]; 72 h, 5 μM, FIPV sample 12.00 ± 0.03): 11.95 ± 0.01^cd
% log10 copy number decrement ([5]; 72 h, 10 μM): 26.92 ± 5.93^cd %
3′UTR log10 copy number ([5]; 72 h, 10 μM, FIPV sample 12.00 ± 0.03): 11.86 ± 0.06^abc
% log10 copy number decrement ([5]; 72 h, 20 μM): 26.38 ± 2.75^c %
3′UTR log10 copy number ([5]; 72 h, 20 μM, FIPV sample 12.00 ± 0.03): 11.87 ± 0.04^abc
Exposure up to which no cytotoxic effect was observed [6]: 30 µM
